According to PubChem BioAssay (NCI):
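At the GI50, growth is halved. The concentration for full growth arrest is given as TGI.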

Key:
Experiment in all cases: inhibition of tumour cell growth, NCI panel, 384-well format; in the data active = GI50 below about 0.43 µM; inactive = the rest
[1] = test system: A498 renal
[2] = test system: A549 NSCLC
[3] = test system: ACHN renal
[4] = test system: BT-549 breast
[5] = test system: CAKI-1 renal
[6] = test system: COLO 205 colon
[7] = test system: DU-145 prostate
[8] = test system: EKVX NSCLC
[9] = test system: HCC-2998 colon
[10] = test system: HCT-116 colon
[11] = test system: HCT-15 colon
[12] = test system: HL-60(TB) leukemia
[13] = test system: HOP-62 NSCLC
[14] = test system: HOP-92 NSCLC
[15] = test system: HS 578T breast
[16] = test system: HT29 colon
[17] = test system: IGROV1 ovarian
[18] = test system: KM12 colon
[19] = test system: LOX IMVI melanoma
[20] = test system: M14 melanoma
[21] = test system: MALME-3M melanoma
[22] = test system: MCF7 breast
[23] = test system: MDA-MB-231 breast
[24] = test system: MDA-MB-435 melanoma
[25] = test system: MDA-MB-468 breast
[26] = test system: MOLT-4 leukemia
[27] = test system: NCI-H226 lung
[28] = test system: NCI-H23 lung
[29] = test system: NCI-H322M lung
[30] = test system: NCI-H460 NSCLC
[31] = test system: NCI-H522 lung
[32] = test system: NCI/ADR-RES ovarian
[33] = test system: OVCAR-3 ovarian
[34] = test system: OVCAR-4 ovarian
[35] = test system: OVCAR-5 ovarian
[36] = test system: OVCAR-8 ovarian
[37] = test system: PC-3 prostate
[38] = test system: RPMI-8226 leukemia
[39] = test system: RXF 393 renal
[40] = test system: SF-268 CNS
[41] = test system: SF-295 CNS
[42] = test system: SF-539 CNS
[43] = test system: SK-MEL-28 melanoma
[44] = test system: SK-MEL-5 melanoma
[45] = test system: SK-OV-3 ovarian
[46] = test system: SN12C renal
[47] = test system: SNB-19 CNS
[48] = test system: SNB-75 CNS
[49] = test system: SR leukemia
[50] = test system: T-47D breast
[51] = test system: TK-10 renal
[52] = test system: U251 glioblastoma
[53] = test system: UACC-257 melanoma
[54] = test system: UACC-62 melanoma

COC(=O)c1ccc2c(c1)nc(NC(=O)c1ccccc1)n2CCCc1ccccc1
0.44 µM: TGI [49]
active: GI50 [12] 0.413 µM | GI50 [26] 0.222 µM | GI50 [30] 0.342 µM | GI50 [44] 0.395 µM | GI50 [49] 0.203 µM
4 µM: TGI [11]
6.46 µM: TGI [4]
1.67 µM: TGI [44]
34.5 µM: TGI [51]
65.9 µM: TGI [34]
9.95 µM: TGI [53]
3.55 µM: TGI [13]
5.25 µM: TGI [36]
11.3 µM: TGI [52]
4.6 µM: TGI [38]
15.9 µM: TGI [1]
8.59 µM: TGI [29]
24.4 µM: TGI [7]
31.6 µM: TGI [35]
0.413 µM: TGI [26]
18 µM: TGI [42]
20 µM: TGI [47]
66.8 µM: TGI [48]
9.61 µM: TGI [31]
3.05 µM: TGI [20]
> 100 µM: TGI [2] | TGI [5] | TGI [8] | TGI [9] | TGI [10] | TGI [14] | TGI [15] | TGI [16] | TGI [17] | TGI [18] | TGI [21] | TGI [22] | TGI [23] | TGI [24] | TGI [25] | TGI [28] | TGI [37] | TGI [39] | TGI [40] | TGI [41] | TGI [43] | TGI [45] | TGI [50] | TGI [54]
2.16 µM: TGI [32]
2.81 µM: TGI [19]
5.78 µM: TGI [6]
inactive: GI50 [1] 2.08 µM | GI50 [2] 3.61 µM | GI50 [3] 3.99 µM | GI50 [4] 0.741 µM | GI50 [5] 6.36 µM | GI50 [6] 2.04 µM | GI50 [7] 1.77 µM | GI50 [8] 1.46 µM | GI50 [9] 1.85 µM | GI50 [10] 0.852 µM | GI50 [11] 0.478 µM | GI50 [13] 0.469 µM | GI50 [14] 3.93 µM | GI50 [15] 6.95 µM | GI50 [16] 2.72 µM | GI50 [17] 2.04 µM | GI50 [18] 2.33 µM | GI50 [19] 0.946 µM | GI50 [20] 0.519 µM | GI50 [21] 2.9 µM | GI50 [22] 1.65 µM | GI50 [23] 7.06 µM | GI50 [24] 4.03 µM | GI50 [25] 2.19 µM | GI50 [27] 3.41 µM | GI50 [28] 1.86 µM | GI50 [29] 0.884 µM | GI50 [31] 1.49 µM | GI50 [32] 0.458 µM | GI50 [33] 1.84 µM | GI50 [34] 11.5 µM | GI50 [35] 3.94 µM | GI50 [36] 1.58 µM | GI50 [37] 4.95 µM | GI50 [38] 1.5 µM | GI50 [39] 3.11 µM | GI50 [40] 1.81 µM | GI50 [41] 3.11 µM | GI50 [42] 2.13 µM | GI50 [43] 3.12 µM | GI50 [45] 0.973 µM | GI50 [46] 2.38 µM | GI50 [47] 2.21 µM | GI50 [48] 3.91 µM | GI50 [50] 4.13 µM | GI50 [51] 2.63 µM | GI50 [52] 0.673 µM | GI50 [53] 2.32 µM | GI50 [54] 2.45 µM
31.7 µM: TGI [3]
69.4 µM: TGI [33]
1.14 µM: TGI [30]
8.75 µM: TGI [46]
48.9 µM: TGI [27]
1.75 µM: TGI [12]
